Earlier results in US20230226006A1, “Compositions for the Treatment of Dry Eye and Methods of Use Thereof” (The Schepens Eye Research Institute, Inc., priority 2017, published 2023).

Solubility in organic solvents (organic solvents): well soluble
Solubility in water (water): slightly soluble
SMILES: C=CCN=C=S [Allyl isothiocyanate, 3-Isothiocyanato-1-propene]
